ChEMBL document CHEMBL6127049, “Discovery of the selective and nanomolar inhibitor of DPP-4 more potent than sitagliptin by structure-guided rational design” (Eur J Med Chem, 2024)
Activity calls are given as the source filed them. The rule behind the calls is not given here.

Experiments:
[1] = system: Rattus norvegicus; assay: Reduction of serum glutamate oxaloacetate transaminase (SGOT) level in STZ-induced type 2 diabetes male Wistar albino rat model at 20 mg/kg, po measured after 4 weeks by hepatic function test; assay type: functional, organism-based
[2] = system: Rattus norvegicus; assay: Anti-diabetic activity in normal Wistar rat model assessed as blood glucose level at 20 mg/kg, po followed by treated administered 3 mg/kg orally measured after 30 mins by Oral glucose tolerance test (reference value: 176.14 + /- 4.04 mg/dL); assay type: functional; conditions: 0.5 h
[3] = system: Rattus norvegicus; assay: Anti-diabetic activity in normal Wistar rat model assessed as blood glucose level at 10 mg/kg, po followed by treated administered 3 mg/kg orally measured after 60 mins by Oral glucose tolerance test (reference value: 153.74 + /- 3.94 mg/dL); assay type: functional; conditions: 1 h
[4] = Acute toxicity in Balb/C mouse assessed as changes in general appearance at 1250 to 2000 mg/kg, po; assay type: organism-based; conditions: in vivo, dose 1250-2000 mg/kg
[5] = Acute toxicity in Balb/C mouse assessed as morphological changes in fur at 1250 to 2000 mg/kg, po; assay type: organism-based; conditions: in vivo, dose 1250-2000 mg/kg
[6] = system: Rattus norvegicus; assay: Anti-diabetic activity in normal Wistar rat model assessed as blood glucose level at 10 mg/kg, po followed by treated administered 3 mg/kg orally measured after 120 mins by Oral glucose tolerance test (reference value: 126.5 + /- 3.90 mg/dL); assay type: functional; conditions: 2 h
[7] = system: Rattus norvegicus; assay: Reduction of serum glutamate pyruvate transaminase (SGPT) level in STZ-induced type 2 diabetes male Wistar albino rat model at 10 mg/kg, po measured after 4 weeks by hepatic function test; assay type: functional, organism-based
[8] = system: Rattus norvegicus; assay: Anti-diabetic activity in normal Wistar rat model assessed as blood glucose level at 20 mg/kg, po followed by treated administered 3 mg/kg orally measured after 90 mins by Oral glucose tolerance test (reference value: 134.11 + /- 4.64 mg/dL); assay type: functional; conditions: 1.5 h
[9] = system: Rattus norvegicus; assay: Anti-diabetic activity in normal Wistar rat model assessed as blood glucose level at 20 mg/kg, po followed by treated administered 3 mg/kg orally measured after 120 mins by Oral glucose tolerance test (reference value: 126.5 + /- 3.90 mg/dL); assay type: functional; conditions: 2 h
[10] = system: Rattus norvegicus; assay: Antihyperlipidemic effect in STZ-induced type 2 diabetes male Wistar albino rat model assessed as HDL level at 10 mg/kg, po measured after 4 weeks (reference value: 25.54 +/- 2.62 mg/dL); assay type: functional
[11] = organism: Rattus norvegicus; assay: Anti-diabetic activity in STZ-induced type 2 diabetes male Wistar albino rat model assessed as fasting blood glucose level measured on day 1; assay type: functional
[12] = Acute toxicity in Balb/C mouse assessed as morphological changes in convulsions at 1250 to 2000 mg/kg, po; assay type: organism-based; conditions: in vivo, dose 1250-2000 mg/kg
[13] = Acute toxicity in Balb/C mouse assessed as morphological changes in eyes at 1250 to 2000 mg/kg, po; assay type: organism-based; conditions: in vivo, dose 1250-2000 mg/kg
[14] = system: Rattus norvegicus; assay: Reduction of alkaline phosphatase (ALP) level in STZ-induced type 2 diabetes male Wistar albino rat model at 20 mg/kg, po measured after 4 weeks by hepatic function test; assay type: functional, organism-based
[15] = Acute toxicity in Balb/C mouse assessed as morphological changes in salvation at 1250 to 2000 mg/kg, po; assay type: organism-based; conditions: in vivo, dose 1250-2000 mg/kg
[16] = organism: Rattus norvegicus; assay: Anti-diabetic activity in STZ-induced type 2 diabetes male Wistar albino rat model assessed as fasting blood glucose level measured on day 28; assay type: functional
[17] = system: Rattus norvegicus; assay: Antihyperlipidemic effect in STZ-induced type 2 diabetes male Wistar albino rat model assessed as HDL level at 20 mg/kg, po measured after 4 weeks (reference value: 25.54 +/- 2.62 mg/dL); assay type: functional
[18] = molecular target: Dipeptidyl peptidase 8 (Homo sapiens, UniProt Q6V1X1); assay: Inhibition of DPP8 (unknown origin) assessed as hydrolysis rate using Gly-pro-p-nitroanilide as substrate measured after 20 mins incubation by […] assay
[19] = Acute toxicity in Balb/C mouse assessed as morphological changes in unusual behavior at 1250 to 2000 mg/kg, po; assay type: organism-based; conditions: in vivo, dose 1250-2000 mg/kg
[20] = system: Rattus norvegicus; assay: Reduction of serum glutamate oxaloacetate transaminase (SGOT) level in STZ-induced type 2 diabetes male Wistar albino rat model at 10 mg/kg, po measured after 4 weeks by hepatic function test; assay type: functional, organism-based
[21] = system: Rattus norvegicus; assay: Anti-diabetic activity in normal Wistar rat model assessed as blood glucose level at 10 mg/kg, po followed by treated administered 3 mg/kg orally measured after 90 mins by Oral glucose tolerance test (reference value: 134.11 + /- 4.64 mg/dL); assay type: functional; conditions: 1.5 h
[22] = system: Rattus norvegicus; assay: Antihyperlipidemic effect in STZ-induced type 2 diabetes male Wistar albino rat model assessed as LDL level at 10 mg/kg, po measured after 4 weeks (reference value: 184.65 +/- 4.57 mg/dL); assay type: functional
[23] = system: Rattus norvegicus; assay: Reduction of alkaline phosphatase (ALP) level in STZ-induced type 2 diabetes male Wistar albino rat model at 10 mg/kg, po measured after 4 weeks by hepatic function test; assay type: functional, organism-based
[24] = system: Rattus norvegicus; assay: Anti-diabetic activity in normal Wistar rat model assessed as blood glucose level at 20 mg/kg, po followed by treated administered 3 mg/kg orally measured immediately after administration by Oral glucose tolerance test (reference value: 105.12 mg/dL); assay type: functional
[25] = system: Rattus norvegicus; assay: Anti-diabetic activity in normal Wistar rat model assessed as blood glucose level at 20 mg/kg, po followed by treated administered 3 mg/kg orally measured after 60 mins by Oral glucose tolerance test (reference value: 153.74 + /- 3.94 mg/dL); assay type: functional; conditions: 1 h
[26] = system: Rattus norvegicus; assay: Antihyperlipidemic effect in STZ-induced type 2 diabetes male Wistar albino rat model assessed as triglyceride level at 20 mg/kg, po measured after 4 weeks (reference value: 190.23 +/- 4.37 mg/dL); assay type: functional
[27] = molecular target: Dipeptidyl peptidase 4 (Homo sapiens, UniProt P27487); assay: Inhibition of DPP4 (unknown origin) assessed as hydrolysis rate using Gly-pro-p-nitroanilide as substrate measured after 20 mins incubation by fluorometric assay
[28] = Acute toxicity in Balb/C mouse assessed as morphological changes in diarrhea at 1250 to 2000 mg/kg, po; assay type: organism-based; conditions: in vivo, dose 1250-2000 mg/kg
[29] = Acute toxicity in Balb/C mouse assessed as morphological changes in tremors at 1250 to 2000 mg/kg, po; assay type: organism-based; conditions: in vivo, dose 1250-2000 mg/kg
[30] = system: Rattus norvegicus; assay: Antihyperlipidemic effect in STZ-induced type 2 diabetes male Wistar albino rat model assessed as triglyceride level at 10 mg/kg, po measured after 4 weeks (reference value: 190.23 +/- 4.37 mg/dL); assay type: functional
[31] = system: Rattus norvegicus; assay: Reduction of serum glutamate pyruvate transaminase (SGPT) level in STZ-induced type 2 diabetes male Wistar albino rat model at 20 mg/kg, po measured after 4 weeks by hepatic function test; assay type: functional, organism-based
[32] = system: Rattus norvegicus; assay: Antihyperlipidemic effect in STZ-induced type 2 diabetes male Wistar albino rat model assessed as total cholesterol level at 10 mg/kg, po measured after 4 weeks (reference value: 227.04 +/- 4.10 mg/dL); assay type: functional
[33] = system: Rattus norvegicus; assay: Antihyperlipidemic effect in STZ-induced type 2 diabetes male Wistar albino rat model assessed as LDL level at 20 mg/kg, po measured after 4 weeks (reference value: 184.65 +/- 4.57 mg/dL); assay type: functional
[34] = system: Rattus norvegicus; assay: Anti-diabetic activity in normal Wistar rat model assessed as blood glucose level at 10 mg/kg, po followed by treated administered 3 mg/kg orally measured after 30 mins by Oral glucose tolerance test (reference value: […] 176.14 + /- 4.04 mg/dL); assay type: functional; conditions: 0.5 h
[35] = system: Rattus norvegicus; assay: Anti-diabetic activity in normal Wistar rat model assessed as blood glucose level at 10 mg/kg, po followed by treated administered 3 mg/kg orally measured immediately after administration by Oral glucose tolerance test (reference value: 105.12 mg/dL); assay type: functional
[36] = molecular target: Dipeptidyl peptidase 9 (Homo sapiens, UniProt Q86TI2); assay: Inhibition of DPP9 (unknown origin) assessed as hydrolysis rate using Gly-pro-p-nitroanilide as substrate measured after 20 mins incubation by […] assay
[37] = Acute toxicity in Balb/C mouse assessed as morphological changes in skin at 1250 to 2000 mg/kg, po; assay type: organism-based; conditions: in vivo, dose 1250-2000 mg/kg
[38] = Acute toxicity in Balb/C mouse assessed as morphological changes in nose at 1250 to 2000 mg/kg, po; assay type: organism-based; conditions: in vivo, dose 1250-2000 mg/kg
[39] = system: Rattus norvegicus; assay: Antihyperlipidemic effect in STZ-induced type 2 diabetes male Wistar albino rat model assessed as total cholesterol level at 20 mg/kg, po measured after 4 weeks (reference value: 227.04 +/- 4.10 mg/dL); assay type: functional
[40] = system: Rattus norvegicus; assay: Reduction of serum creatinine level in STZ-induced type 2 diabetes male Wistar albino rat model at 10 mg/kg, po measured after 4 weeks by hepatic function test; assay type: functional, organism-based
[41] = system: Rattus norvegicus; assay: Reduction of serum creatinine level in STZ-induced type 2 diabetes male Wistar albino rat model at 20 mg/kg, po measured after 4 weeks by hepatic function test; assay type: functional, organism-based
[42] = system: Rattus norvegicus; assay: Antihyperlipidemic effect in STZ-induced type 2 diabetes male Wistar albino rat model assessed as HDL level at 0.5 mg/kg, po measured after 4 weeks (reference value: 25.54 +/- 2.62 mg/dL); assay type: functional
[43] = system: Rattus norvegicus; assay: Antihyperlipidemic effect in STZ-induced type 2 diabetes male Wistar albino rat model assessed as triglyceride level at 0.5 mg/kg, po measured after 4 weeks (reference value: 190.23 +/- 4.37 mg/dL); assay type: functional
[44] = system: Rattus norvegicus; assay: Antihyperlipidemic effect in STZ-induced type 2 diabetes male Wistar albino rat model assessed as LDL level at 0.5 mg/kg, po measured after 4 weeks (reference value: 184.65 +/- 4.57 mg/dL); assay type: functional
[45] = system: Rattus norvegicus; assay: Antihyperlipidemic effect in STZ-induced type 2 diabetes male Wistar albino rat model assessed as total cholesterol level at 0.5 mg/kg, po measured after 4 weeks (reference value: 227.04 +/- 4.10 mg/dL); assay type: functional

Sequence of Dipeptidyl peptidase 4 (P27487 whole entry): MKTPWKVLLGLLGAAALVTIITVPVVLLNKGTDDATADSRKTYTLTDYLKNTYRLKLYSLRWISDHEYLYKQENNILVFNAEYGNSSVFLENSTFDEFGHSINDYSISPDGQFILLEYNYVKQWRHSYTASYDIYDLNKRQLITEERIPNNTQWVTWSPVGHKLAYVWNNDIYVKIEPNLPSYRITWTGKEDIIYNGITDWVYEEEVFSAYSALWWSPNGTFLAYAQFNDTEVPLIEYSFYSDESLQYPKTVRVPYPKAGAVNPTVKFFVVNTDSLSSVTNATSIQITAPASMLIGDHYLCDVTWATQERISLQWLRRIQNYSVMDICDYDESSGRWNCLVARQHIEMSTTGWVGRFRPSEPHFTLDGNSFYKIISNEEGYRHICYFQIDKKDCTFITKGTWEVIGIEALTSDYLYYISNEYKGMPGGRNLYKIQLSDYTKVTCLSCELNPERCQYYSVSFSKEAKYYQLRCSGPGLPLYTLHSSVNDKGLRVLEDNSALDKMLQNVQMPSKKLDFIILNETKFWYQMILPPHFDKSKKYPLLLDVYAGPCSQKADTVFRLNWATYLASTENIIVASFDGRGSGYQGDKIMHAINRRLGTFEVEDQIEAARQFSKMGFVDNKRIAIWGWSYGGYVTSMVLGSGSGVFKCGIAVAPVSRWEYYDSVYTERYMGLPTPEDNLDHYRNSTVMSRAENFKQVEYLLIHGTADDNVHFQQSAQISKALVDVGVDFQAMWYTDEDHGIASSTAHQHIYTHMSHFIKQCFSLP
Sequence of Dipeptidyl peptidase 8 (Q6V1X1 whole entry): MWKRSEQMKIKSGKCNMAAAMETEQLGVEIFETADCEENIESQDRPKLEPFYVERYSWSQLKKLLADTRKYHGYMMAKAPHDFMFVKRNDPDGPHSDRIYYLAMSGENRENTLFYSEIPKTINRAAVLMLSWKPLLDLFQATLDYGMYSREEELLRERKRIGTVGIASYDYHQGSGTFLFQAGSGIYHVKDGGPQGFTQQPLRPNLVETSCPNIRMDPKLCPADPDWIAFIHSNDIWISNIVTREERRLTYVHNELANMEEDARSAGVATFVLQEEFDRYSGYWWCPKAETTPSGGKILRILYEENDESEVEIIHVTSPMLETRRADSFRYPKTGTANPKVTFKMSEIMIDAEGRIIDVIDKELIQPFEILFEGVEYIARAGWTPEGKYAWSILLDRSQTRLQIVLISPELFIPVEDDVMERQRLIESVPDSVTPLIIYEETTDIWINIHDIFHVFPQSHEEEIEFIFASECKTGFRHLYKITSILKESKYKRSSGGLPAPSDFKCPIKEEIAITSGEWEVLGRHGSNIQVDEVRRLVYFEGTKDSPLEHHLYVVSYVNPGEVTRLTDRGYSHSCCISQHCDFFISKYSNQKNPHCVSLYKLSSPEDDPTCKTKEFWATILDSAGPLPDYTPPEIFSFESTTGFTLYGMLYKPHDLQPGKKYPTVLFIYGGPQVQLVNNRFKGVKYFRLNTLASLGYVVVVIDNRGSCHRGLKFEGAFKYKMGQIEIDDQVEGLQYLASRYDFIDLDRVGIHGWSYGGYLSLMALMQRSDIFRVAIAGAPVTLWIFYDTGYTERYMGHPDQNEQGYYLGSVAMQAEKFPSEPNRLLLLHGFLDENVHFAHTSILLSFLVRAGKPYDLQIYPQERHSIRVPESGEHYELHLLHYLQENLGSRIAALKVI
Sequence of Dipeptidyl peptidase 9 (Q86TI2 whole entry): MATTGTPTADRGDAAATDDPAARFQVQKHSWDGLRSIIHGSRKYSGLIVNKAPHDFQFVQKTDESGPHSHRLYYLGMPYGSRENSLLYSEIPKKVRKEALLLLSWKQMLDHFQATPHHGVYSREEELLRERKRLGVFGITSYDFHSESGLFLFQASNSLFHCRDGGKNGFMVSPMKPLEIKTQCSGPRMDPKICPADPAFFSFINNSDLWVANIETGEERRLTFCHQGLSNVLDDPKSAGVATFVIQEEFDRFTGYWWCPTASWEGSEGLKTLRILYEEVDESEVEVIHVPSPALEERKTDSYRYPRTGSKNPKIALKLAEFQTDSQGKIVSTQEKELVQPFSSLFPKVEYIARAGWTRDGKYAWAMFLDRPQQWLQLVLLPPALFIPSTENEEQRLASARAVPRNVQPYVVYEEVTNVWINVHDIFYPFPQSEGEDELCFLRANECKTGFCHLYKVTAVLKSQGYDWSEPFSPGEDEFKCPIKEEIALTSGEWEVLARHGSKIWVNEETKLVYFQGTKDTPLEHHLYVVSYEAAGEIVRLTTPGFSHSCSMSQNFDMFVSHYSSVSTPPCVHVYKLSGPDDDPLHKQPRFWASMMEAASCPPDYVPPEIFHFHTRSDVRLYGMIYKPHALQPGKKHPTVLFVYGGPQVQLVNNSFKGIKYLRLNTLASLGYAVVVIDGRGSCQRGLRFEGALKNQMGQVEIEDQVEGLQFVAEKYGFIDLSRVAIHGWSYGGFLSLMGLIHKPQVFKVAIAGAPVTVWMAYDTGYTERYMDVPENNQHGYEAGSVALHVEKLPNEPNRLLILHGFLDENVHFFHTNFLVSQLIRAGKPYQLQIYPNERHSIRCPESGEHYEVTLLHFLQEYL

Structure (SMILES) | Activity [1] | Activity [2] | Activity [3] | Activity [6] | Activity [7] | Activity [8] | Activity [9] | Activity [10] | Activity [14] | Activity [17] | Activity [20] | Activity [21] | Activity [22] | Activity [23] | Activity [24] | Activity [25] | Activity [26] | IC50 [27] | Activity [30] | Activity [31] | other results
CC1=C(C(=O)O)C(c2ccc(F)c(F)c2)N=C(N)N1C(=O)CN1Cc2cn(S(C)(=O)=O)nc2C1 (stereo not given) | Active | 116.78 mg/dL | 121.54 mg/dL | 108.68 mg/dL | Active | 116.56 mg/dL | 109.75 mg/dL | 45.9 mg/dL | Active | 53.56 mg/dL | Active | 110.22 mg/dL | 131.65 mg/dL | Active | 100.83 mg/dL | 114.26 mg/dL | 117.23 mg/dL | 2 nM | 146.34 mg/dL | Active | Activity [4]: Non-Toxic; Activity [5]: Non-Toxic; Activity [11]: 291 mg/dL; Activity [12]: Non-Toxic; Activity [13]: Non-Toxic; Activity [15]: Non-Toxic; Activity [16]: 141 mg/dL; IC50 [18]: 3320 nM; Activity [19]: Non-Toxic; Activity [28]: Non-Toxic; Activity [29]: Non-Toxic; Activity [32]: 152.34 mg/dL; Activity [33]: 114.67 mg/dL; Activity [34]: 119.65 mg/dL; Activity [35]: 103.52 mg/dL; IC50 [36]: 2840 nM; Activity [37]: Non-Toxic; Activity [38]: Non-Toxic; Activity [39]: 138.76 mg/dL
CC1=C(C(=O)O)C(c2ccc(F)c(F)c2)N=C(N)N1C(=O)CN1CCn2c(nnc2C(F)(F)F)C1 (stereo not given) | Active | 114.05 mg/dL | 113.74 mg/dL | 126.68 mg/dL | Active | 110.82 mg/dL | 107.18 mg/dL | 48.67 mg/dL | Active | 59.54 mg/dL | Active | 134.23 mg/dL | 121.78 mg/dL | Active | 101.26 mg/dL | 112.43 mg/dL | 113.65 mg/dL | 116 nM | 141.45 mg/dL | Active | Activity [40]: Active; Activity [41]: Active; Activity [32]: 148.1 mg/dL; Activity [33]: 105.65 mg/dL; Activity [34]: 117.53 mg/dL; Activity [35]: 103.12 mg/dL; Activity [39]: 134.27 mg/dL
COc1ccc(Cl)cc1C(=O)NCCc1ccc(S(=O)(=O)NC(=O)NC2CCCCC2)cc1 [GLYBURIDE] | – | – | – | – | – | – | – | – | – | – | – | – | – | – | – | – | – | – | – | – | Activity [42]: 66.6 mg/dL; Activity [43]: 106.87 mg/dL; Activity [44]: 97.55 mg/dL; Activity [45]: 123.65 mg/dL
